Laboratory results reported in ChEMBL document CHEMBL1144369, “2-Ethoxybenzoxazole as a bioisosteric replacement of an ethyl benzoate group in a human rhinovirus (HRV) capsid binder” (Bioorg Med Chem Lett, 2005).
In brackets after ≈: the same amount, converted by molar mass.

Assays:
Human rhinovirus sp. [1] = assay: Effective concentration against HRV-14; format: functional, organism-based
Human rhinovirus sp. [2] = assay: Effective concentration against HRV-2; format: functional, organism-based
Human rhinovirus sp. [3] = assay: Effective concentration against HRV serotype 86 (assay was run at least six times); format: functional, organism-based
Human rhinovirus sp. [4] = assay: Effective concentration against HRV serotype 14 (assay was run at least six times); format: functional, organism-based
Human rhinovirus sp. [5] = assay: Effective concentration against HRV serotype 63 (assay was run at least six times); format: functional, organism-based
Human rhinovirus sp. [6] = assay: Effective concentration against HRV serotype 9 (assay was run at least six times); format: functional, organism-based
Human rhinovirus sp. [7] = assay: Median effective concentration against HRV serotypes; Number of serotypes 16; format: functional, organism-based
Human rhinovirus sp. [8] = assay: Effective concentration against HRV serotype 72 (assay was run at least six times); format: functional, organism-based
Human rhinovirus sp. [9] = assay: Effective concentration against HRV serotype 2 (assay was run at least six times); format: functional, organism-based
Human rhinovirus sp. [10] = assay: Effective concentration against HRV serotype 39 (assay was run at least six times); format: functional, organism-based
Human rhinovirus sp. [11] = assay: Effective concentration against HRV serotype 51 (assay was run at least six times); format: functional, organism-based
Human rhinovirus sp. [12] = assay: Effective concentration against HRV serotype 89 (assay was run at least six times); format: functional, organism-based
Human rhinovirus sp. [13] = assay: Effective concentration against HRV serotype 85 (assay was run at least six times); format: functional, organism-based
Human rhinovirus sp. [14] = assay: Effective concentration against HRV serotype 15 (assay was run at least six times); format: functional, organism-based
Human rhinovirus sp. [15] = assay: Effective concentration against HRV serotype 29 (assay was run at least six times); format: functional, organism-based
Human rhinovirus sp. [16] = assay: Effective concentration against HRV serotype 16 (assay was run at least six times); format: functional, organism-based
Human rhinovirus sp. [17] = assay: Effective concentration against HRV serotype 59 (assay was run at least six times); format: functional, organism-based
Human rhinovirus sp. [18] = assay: Effective concentration against HRV serotype 70 (assay was run at least six times); format: functional, organism-based
Human rhinovirus sp. [19] = assay: Effective concentration against HRV serotype 45 (assay was run for 3 times); format: functional, organism-based
Human rhinovirus sp. [20] = assay: Effective concentration against HRV serotype 45 (assay was run at least six times); format: functional, organism-based
Human rhinovirus sp. [21] = assay: Effective concentration against HRV-16; format: functional, organism-based
Human rhinovirus sp. [22] = assay: Percent inhibition of HRV strains at a concentration of 0.064 ug/mL; no. of strains=100; format: functional

CCCc1nc2cc(OCCC3CCN(c4ccc(C)nn4)CC3)ccc2o1
EC50 (Human rhinovirus sp. [1]): 0.028 µg/mL (≈ 0.0736 µM)
EC50 (Human rhinovirus sp. [2]): 0.075 µg/mL (≈ 0.197 µM)

CCOc1nc2ccc(OCCC3CCN(c4ccc(C)nn4)CC3)cc2s1
EC50 (Human rhinovirus sp. [1]): 0.014 µg/mL (≈ 0.0351 µM)
EC50 (Human rhinovirus sp. [2]): 0.104 µg/mL (≈ 0.261 µM)

CCSc1nc2ccc(OCCC3CCN(c4ccc(C)nn4)CC3)cc2n1C
EC50 (Human rhinovirus sp. [1]): > 0.25 µg/mL
EC50 (Human rhinovirus sp. [2]): 0.086 µg/mL (≈ 0.209 µM)

CCSc1nc2cc(OCCC3CCN(c4ccc(C)nn4)CC3)ccc2n1C
EC50 (Human rhinovirus sp. [1]): 0.169 µg/mL (≈ 0.411 µM)
EC50 (Human rhinovirus sp. [2]): 0.102 µg/mL (≈ 0.248 µM)

CCSc1nc2ccc(OCCC3CCN(c4ccc(C)nn4)CC3)cc2s1
EC50 (Human rhinovirus sp. [1]): 0.049 µg/mL (≈ 0.118 µM)
EC50 (Human rhinovirus sp. [2]): 0.165 µg/mL (≈ 0.398 µM)

CCSc1nc2ccc(OCCC3CCN(c4ccc(C)nn4)CC3)cc2o1
EC50 (Human rhinovirus sp. [1]): 0.05 µg/mL (≈ 0.125 µM)
EC50 (Human rhinovirus sp. [2]): 0.004 µg/mL (≈ 0.01 µM)

COc1nc2cc(OCCC3CCN(c4ccc(C)nn4)CC3)ccc2o1
EC50 (Human rhinovirus sp. [1]): 0.099 µg/mL (≈ 0.269 µM)
EC50 (Human rhinovirus sp. [2]): 0.159 µg/mL (≈ 0.432 µM)

CCOc1nc2cc(OCCC3CCN(c4ccc(C)nn4)CC3)ccc2o1
EC50 (Human rhinovirus sp. [3]): 0.00874 µg/mL (≈ 0.0229 µM)
EC50 (Human rhinovirus sp. [4]): 0.00432 µg/mL (≈ 0.0113 µM)
EC50 (Human rhinovirus sp. [5]): 0.0003 µg/mL (≈ 0.000784 µM)
EC50 (Human rhinovirus sp. [6]): 0.0012 µg/mL (≈ 0.00314 µM)
EC50 (Human rhinovirus sp. [7]): 0.00388 µg/mL (≈ 0.0101 µM)
EC50 (Human rhinovirus sp. [8]): 0.142 µg/mL (≈ 0.372 µM)
EC50 (Human rhinovirus sp. [9]): 0.00116 µg/mL (≈ 0.00303 µM)
EC50 (Human rhinovirus sp. [10]): 0.00053 µg/mL (≈ 0.00139 µM)
EC50 (Human rhinovirus sp. [11]): 0.00345 µg/mL (≈ 0.00902 µM)
EC50 (Human rhinovirus sp. [12]): 0.00151 µg/mL (≈ 0.00395 µM)
EC50 (Human rhinovirus sp. [13]): 0.00078 µg/mL (≈ 0.00204 µM)
EC50 (Human rhinovirus sp. [14]): 0.00433 µg/mL (≈ 0.0113 µM)
EC50 (Human rhinovirus sp. [1]): 0.007 µg/mL (≈ 0.0183 µM)
EC50 (Human rhinovirus sp. [15]): 0.00728 µg/mL (≈ 0.019 µM)
EC50 (Human rhinovirus sp. [16]): 0.00772 µg/mL (≈ 0.0202 µM)
EC50 (Human rhinovirus sp. [17]): 0.00226 µg/mL (≈ 0.00591 µM)
EC50 (Human rhinovirus sp. [2]): 0.003 µg/mL (≈ 0.00784 µM)
EC50 (Human rhinovirus sp. [18]): 0.0152 µg/mL (≈ 0.0398 µM)
EC50 (Human rhinovirus sp. [19]): > 0.25 µg/mL

CCOc1nc2cc(OCCC3CCN(c4ccc(C)nn4)CC3)ccc2s1
EC50 (Human rhinovirus sp. [1]): 0.006 µg/mL (≈ 0.0151 µM)
EC50 (Human rhinovirus sp. [2]): 0.007 µg/mL (≈ 0.0176 µM)

CCCCc1nc2cc(OCCC3CCN(c4ccc(C)nn4)CC3)ccc2o1
EC50 (Human rhinovirus sp. [1]): 0.082 µg/mL (≈ 0.208 µM)
EC50 (Human rhinovirus sp. [2]): 0.013 µg/mL (≈ 0.033 µM)

Cc1ccc(N2CCC(CCOc3ccc4nc(C)oc4c3)CC2)nn1
EC50 (Human rhinovirus sp. [1]): > 0.5 µg/mL
EC50 (Human rhinovirus sp. [2]): > 0.5 µg/mL

CCc1nc2cc(OCCC3CCN(c4ccc(C)nn4)CC3)ccc2o1
EC50 (Human rhinovirus sp. [1]): 0.13 µg/mL (≈ 0.355 µM)
EC50 (Human rhinovirus sp. [2]): 0.144 µg/mL (≈ 0.393 µM)

CCSc1nc2cc(OCCC3CCN(c4ccc(C)nn4)CC3)ccc2o1
EC50 (Human rhinovirus sp. [1]): 0.006 µg/mL (≈ 0.0151 µM)
EC50 (Human rhinovirus sp. [2]): 0.002 µg/mL (≈ 0.00502 µM)

Cc1cc(CCCOc2c(C)cc(-c3noc(C(F)(F)F)n3)cc2C)on1 [PLECONARIL]
EC50 (Human rhinovirus sp. [3]): 0.07 µg/mL (≈ 0.184 µM)
EC50 (Human rhinovirus sp. [4]): 0.0343 µg/mL (≈ 0.09 µM)
EC50 (Human rhinovirus sp. [5]): 0.0623 µg/mL (≈ 0.163 µM)
EC50 (Human rhinovirus sp. [6]): 0.0372 µg/mL (≈ 0.0974 µM)
EC50 (Human rhinovirus sp. [7]): 0.0496 µg/mL (≈ 0.13 µM)
EC50 (Human rhinovirus sp. [8]): 0.469 µg/mL (≈ 1.23 µM)
EC50 (Human rhinovirus sp. [9]): 0.0265 µg/mL (≈ 0.0694 µM)
EC50 (Human rhinovirus sp. [10]): 0.0449 µg/mL (≈ 0.118 µM)
EC50 (Human rhinovirus sp. [11]): 0.0304 µg/mL (≈ 0.0797 µM)
EC50 (Human rhinovirus sp. [12]): 0.0293 µg/mL (≈ 0.0769 µM)
EC50 (Human rhinovirus sp. [20]): 1.91 µg/mL (≈ 5 µM)
EC50 (Human rhinovirus sp. [13]): 0.034 µg/mL (≈ 0.0892 µM)
EC50 (Human rhinovirus sp. [14]): 0.0698 µg/mL (≈ 0.183 µM)
EC50 (Human rhinovirus sp. [15]): 0.0454 µg/mL (≈ 0.119 µM)
EC50 (Human rhinovirus sp. [16]): 0.108 µg/mL (≈ 0.283 µM)
EC50 (Human rhinovirus sp. [17]): 0.387 µg/mL (≈ 1.02 µM)
EC50 (Human rhinovirus sp. [18]): 0.0539 µg/mL (≈ 0.141 µM)

CSc1nc2cc(OCCC3CCN(c4ccc(C)nn4)CC3)ccc2o1
EC50 (Human rhinovirus sp. [1]): 0.047 µg/mL (≈ 0.122 µM)
EC50 (Human rhinovirus sp. [2]): 0.099 µg/mL (≈ 0.257 µM)

CCOc1nc2ccc(OCCC3CCN(c4ccc(C)nn4)CC3)cc2o1
EC50 (Human rhinovirus sp. [21]): 0.023 µg/mL (≈ 0.0601 µM)
EC50 (Human rhinovirus sp. [2]): 0.045 µg/mL (≈ 0.118 µM)

CCOC(=O)c1ccc(OCCC2CCN(c3ccc(C)nn3)CC2)cc1 [PIRODAVIR]
EC50 (Human rhinovirus sp. [3]): 0.00956 µg/mL (≈ 0.0259 µM)
EC50 (Human rhinovirus sp. [4]): 0.00365 µg/mL (≈ 0.00988 µM)
inhibition at 0.064 µg/mL (Human rhinovirus sp. [22]): 80%
EC50 (Human rhinovirus sp. [5]): 0.00083 µg/mL (≈ 0.00225 µM)
EC50 (Human rhinovirus sp. [6]): 0.00205 µg/mL (≈ 0.00555 µM)
EC50 (Human rhinovirus sp. [7]): 0.00454 µg/mL (≈ 0.0123 µM)
EC50 (Human rhinovirus sp. [8]): 0.0348 µg/mL (≈ 0.0941 µM)
EC50 (Human rhinovirus sp. [9]): 0.00277 µg/mL (≈ 0.0075 µM)
EC50 (Human rhinovirus sp. [10]): 0.0018 µg/mL (≈ 0.00487 µM)
EC50 (Human rhinovirus sp. [11]): 0.00521 µg/mL (≈ 0.0141 µM)
EC50 (Human rhinovirus sp. [12]): 0.0057 µg/mL (≈ 0.0154 µM)
EC50 (Human rhinovirus sp. [20]): > 5 µg/mL
EC50 (Human rhinovirus sp. [13]): 0.00472 µg/mL (≈ 0.0128 µM)
EC50 (Human rhinovirus sp. [14]): 0.00792 µg/mL (≈ 0.0214 µM)
EC50 (Human rhinovirus sp. [15]): 0.00374 µg/mL (≈ 0.0101 µM)
EC50 (Human rhinovirus sp. [16]): 0.0152 µg/mL (≈ 0.0412 µM)
EC50 (Human rhinovirus sp. [17]): 0.00437 µg/mL (≈ 0.0118 µM)
EC50 (Human rhinovirus sp. [18]): 0.00214 µg/mL (≈ 0.00579 µM)

Cc1ccc(N2CCC(CCOc3ccc4oc(C)nc4c3)CC2)nn1
EC50 (Human rhinovirus sp. [1]): > 0.5 µg/mL
EC50 (Human rhinovirus sp. [2]): > 0.5 µg/mL

CCCOc1nc2ccc(OCCC3CCN(c4ccc(C)nn4)CC3)cc2s1
EC50 (Human rhinovirus sp. [1]): 0.041 µg/mL (≈ 0.0994 µM)
EC50 (Human rhinovirus sp. [2]): 0.166 µg/mL (≈ 0.402 µM)

CCCOc1nc2cc(OCCC3CCN(c4ccc(C)nn4)CC3)ccc2o1
EC50 (Human rhinovirus sp. [1]): 0.02 µg/mL (≈ 0.0504 µM)
EC50 (Human rhinovirus sp. [2]): 0.002 µg/mL (≈ 0.00504 µM)
